The structures appear in SMILES notation. pIC50: −log10 of the molar value.

The target of the experiment is T1, human TLR7 (Homo sapiens, UniProt Q9NYK1).
T1 sequence (Q9NYK1 27-1049): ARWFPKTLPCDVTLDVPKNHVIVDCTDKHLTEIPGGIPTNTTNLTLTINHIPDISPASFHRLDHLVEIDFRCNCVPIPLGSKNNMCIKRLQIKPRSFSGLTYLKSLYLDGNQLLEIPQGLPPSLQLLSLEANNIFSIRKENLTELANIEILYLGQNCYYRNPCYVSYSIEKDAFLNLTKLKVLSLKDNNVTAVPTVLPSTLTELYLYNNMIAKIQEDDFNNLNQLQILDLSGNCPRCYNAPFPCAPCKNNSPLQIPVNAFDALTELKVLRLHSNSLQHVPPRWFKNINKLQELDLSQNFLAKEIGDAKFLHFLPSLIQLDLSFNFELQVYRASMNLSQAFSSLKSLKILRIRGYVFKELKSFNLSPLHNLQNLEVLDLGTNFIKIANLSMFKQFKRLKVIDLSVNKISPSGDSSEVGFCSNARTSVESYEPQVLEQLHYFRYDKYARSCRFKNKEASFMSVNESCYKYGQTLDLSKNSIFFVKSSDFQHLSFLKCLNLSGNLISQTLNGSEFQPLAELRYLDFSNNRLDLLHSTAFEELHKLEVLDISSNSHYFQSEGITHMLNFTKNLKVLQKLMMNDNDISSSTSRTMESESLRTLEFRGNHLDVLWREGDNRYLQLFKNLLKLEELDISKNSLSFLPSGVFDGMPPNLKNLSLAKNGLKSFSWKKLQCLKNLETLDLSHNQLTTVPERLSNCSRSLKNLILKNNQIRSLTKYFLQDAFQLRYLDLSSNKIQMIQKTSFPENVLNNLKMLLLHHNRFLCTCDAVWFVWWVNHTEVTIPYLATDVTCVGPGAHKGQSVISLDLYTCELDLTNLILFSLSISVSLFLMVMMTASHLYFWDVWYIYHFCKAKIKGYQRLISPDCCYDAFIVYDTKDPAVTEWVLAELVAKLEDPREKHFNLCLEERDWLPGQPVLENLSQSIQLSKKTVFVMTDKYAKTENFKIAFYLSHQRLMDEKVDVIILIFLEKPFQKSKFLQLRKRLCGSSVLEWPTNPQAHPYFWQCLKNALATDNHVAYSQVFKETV
The experiment can be described thus: HEK293-Blue-hTLR-7 cells assay (SEAP reporter, R848 stimulation). The format is cell-based. As to conditions: HEK293-Blue-hTLR-7 cells, R848 ligand, 20 hrs incubation; read-out: TLR7 IC50. How it is done: The following tests were carried out in order to determine the activity of the compounds of formula (I) in HEK293-Blue-hTLR-7/8/9 cells assay.
HEK293-Blue-hTLR-7 Cells Assay:
A stable HEK293-Blue-hTLR-7 cell line was purchased from InvivoGen (Cat. #: hkb-htlr7, San Diego, California, USA). These cells were originally designed for studying the stimulation of human TLR7 by monitoring the activation of NF-κB. A SEAP (secreted embryonic alkaline phosphatase) reporter gene was placed under the control of the IFN-β minimal promoter fused to five NF-κB and AP-1-binding sites. The SEAP was induced by activating NF-κB and AP-1 via stimulating HEK-Blue hTLR7 cells with TLR7 ligands. Therefore the reporter expression was declined by TLR7 antagonist under the stimulation of a ligand, such as R848 (Resiquimod), for incubation of 20 hrs. The cell culture supernatant SEAP reporter activity was determined using QUANTI-Blue™ kit (Cat. #: rep-qb1, Invivogen, San Diego, Ca, USA) at a wavelength of 640 nm, a detection medium that turns purple or blue in the presence of alkaline phosphatase.
HEK293-Blue-hTLR7 cells were incubated at a density of 250,000˜450,000 cells/mL in a volume of 170 μL in a 96-well plate in Dulbecco's Modified Eagle's medium (DMEM) containing 4.5 g/L glucose, 50 U/mL penicillin, […], […], 2 mM L-glutamine, 10% (v/v) heat-inactivated fetal bovine serum with addition of 20 μL test compound in a serial dilution in the presence of final DMSO at 1% and 10 μL of 20 uM R848 in above DMEM, perform incubation under 37° C. in a CO2 incubator for 20 hrs. Then 20 μL of the supernatant from each well was incubated with 180 μL Quanti-blue substrate solution at 37° C. for 2 hrs and the absorbance was read at 620˜655 nm using a spectrophotometer. The signalling pathway that TLR7 activation leads to downstream NF-κB activation has been widely accepted, and therefore similar reporter assay was modified for evaluating TLR7 antagonist.

As to `C[C@@H]1CN(c2ccc(C#N)n3nccc23)C[C@H](C(=O)NC2CC3CC2CN3)O1` (stereo partly drawn) [Example 36, (2R,6R)-N-(2-azabicyclo[2.2.1]heptan-5-yl)-4-(7-cyanopyrazolo[1,5-a]pyridin-4-yl)-6-methyl-morpholine-2-carboxamide], the pIC50 (commonly the negative decadic logarithm of the IC50, by convention in mol/L) was 6.89. The result for `C[C@@H]1CN(c2ccc(C#N)n3ncc(F)c23)C[C@H](C(=O)NC2CCN(C)CC2)O1` [Example 47, (2R,6R)-4-(7-cyano-3-fluoro-pyrazolo[1,5-a]pyridin-4-yl)-6-methyl-N-(1-methyl-4-piperidyl)morpholine-2-carboxamide] reads 8.10; that for `C[C@@H]1CN(c2ccc(C#N)n3nccc23)C[C@H](C(=O)NC2CNC[C@H]2F)O1` (stereo partly drawn) [Example 5, Cis-(2R,6R)-4-(7-cyanopyrazolo[1,5-a]pyridin-4-yl)-6-methyl-N-(4-fluoropyrrolidin-3-yl) morpholine-2-carboxamide], 7.14; that for `C[C@@H]1CN(c2ccc(C#N)n3nccc23)C[C@H](C(=O)NC2CC3CCC(C2)N3C)O1` (stereo partly drawn) [Example 33, (2R,6R)-4-(7-cyanopyrazolo[1,5-a]pyridin-4-yl)-6-methyl-N-(8-methyl-8-azabicyclo[3.2.1]octan-3-yl)morpholine-2-carboxamide], 8.40. As for `C[C@@H]1CN(c2ccc(C#N)n3nccc23)C[C@H](C(=O)N[C@H]2CC[C@H](O)CC2)O1` [Example 21, Trans-(2R,6R)-4-(7-cyanopyrazolo[1,5-a]pyridin-4-yl)-N-(4-hydroxycyclohexyl)-6-methyl-morpholine-2-carboxamide], the figure is 6.38; as for `C[C@@H]1CN(c2ccc(C#N)n3nccc23)C[C@H](C(=O)NC2(C)CCNCC2)O1` [Example 19, (2R,6R)-4-(7-cyanopyrazolo[1,5-a]pyridin-4-yl)-6-methyl-N-(4-methyl-4-piperidyl)morpholine-2-carboxamide], 7.00.

The values are drawn from US12252484B2, “Pyrazolopyridine compounds for the treatment of autoimmune disease” (Hoffmann-La Roche Inc., priority 2018, dated 2025).
